Measurements reported in publication PMC8162404, “Proteomimetic surface fragments distinguish targets by function” (Chemical Science, 2020).

Columns and labels:
CaM [1] = molecular target: T1, CaM (Bos taurus, UniProt P62157); experiment: Pull-down assay with immobilized protein and LSM libraries; assay type: binding, bovine; conditions: H14 library; 1:2 stoichiometry assumed; read-out: Surface mapping KD (apparent)
T1 construct: made in house; host or cells: E. coli BL21 (DE3)
In short: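 His-tagged protein immobilized on Co-NTA resin, equilibrated 30 min at room temperature with LSM sublibraries (64 members, […]), equimolar protein to total probe. CaM buffer: 20 mM HEPES pH 7.4, 150 mM NaCl, 5 mM CaCl2. Bound fractions from HPLC-MS loss of unbound probe versus protein-free resin control; Kd derived.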

Gal-1 [2] = molecular target: T2, Gal-1 (Homo sapiens, UniProt P09382); experiment: Competition pull-down with lactose; assay type: binding; conditions: H14 library; lactose 10 mM; read-out: Surface mapping KD (apparent), competition
T2 construct: made in house; host or cells: E. coli BL21(DE3)
Description: Interactions between the H14 helical LSMs and the targets were abundant, but safe recognition of the native PPI interfaces on the targets is a criterion of druggability. To gain insight into the ability of the LSMs to detect orthosteric spots, we carried out pull-down assays in the presence of the native ligands (Table 2) of the targets (Fig. 5). For highlighting the effect of the competitor on the binding fingerprints, KD ratios and the LSM replacement percentages were calculated and are represented as heat maps (see ESI, Fig. S7 ^†). […] This could be explained by the glycan selective native recognition domain of the protein. We note that the replacement pattern for a single probe can, in theory, be complex. […] Moreover, a single probe can bind to both orthosteric and non-orthosteric spots, which limits overall displacement levels. To avoid overlooking interesting orthosteric weak binders, direct replacement levels were assessed (see ESI, Fig. S7 ^†).
Pull-down assay and data analysis
Pull-down assay. LSM sublibraries were screened separately as previously described.(2) Experiments were performed in the following buffers: (i) 20 mM pH 7.4 HEPES, 150 mM NaCl, 5 mM CaCl2 for CaM; (ii) 50 mM pH 7.4 HEPES, 150 mM NaCl, 1 mM TCEP, 1 mM CaCl2 for S100 proteins; (iii) 20 mM pH 7.4 HEPES, 150 mM NaCl, 1 mM TCEP for Gal-1 and (iv) 20 mM pH 7.4 HEPES, 150 mM NaCl for RecQ-WH. Assays were performed in paper filter spin cups (Thermo Scientific) with sample volumes of 100 µl. Hexahistidine-tagged proteins were immobilized on previously washed Co-NTA resin (TALON, Takara Bio USA, Inc., Mountain View, CA) in 64 µM final concentration. LSM sublibrary was added, in which each of the 64 library members were used at a concentration of 1 µM. Samples were incubated at room temperature for 30 min with shaking at 100 rpm. Then, samples were centrifuged at 1000 rpm for 2 min and washed with 100 µl pull-down buffer to remove unbound compounds.
The control experiments were performed using the same compounds and the resin but without the immobilized protein. In case of competitive assays, competitor peptides were added to LSM sublibrary samples in 200 µM final concentration. In the case of Gal-1, lactose (competitor) was used in a concentration of 10 mM. Experiments were performed at least twice. Mean […]
LC-MS methods and parameters. HPLC/ESI-MS analysis was used to characterize the samples from the pull-down assay. LC-MS analysis was performed with a Thermo Scientific Dionex UltiMate 3000 HPLC system interfaced to an LTQ ion trap mass spectrometer (Thermo Electron Corp., San Jose, CA, USA). Samples were injected onto an Aeris Widepore XB-C18 (250 x 4.6 mm) analytical HPLC column using gradient elution 5-80 % solution B during 25 minutes. For pull-down samples, eluent composition was 0.1% acetic acid in distilled water (Solution A) and 0.1% acetic acid in acetonitrile (solution B). Mass spectra were acquired in full scan mode from 200 to 2000 m/z range. For overlapping peaks, selective reaction monitoring (SRM) was […]
MS data analysis. Thermo Xcalibur 2.2 software was used for peak identification and integration. The majority of the foldameric fragments could be resolved independently via HPLC-MS/MS measurements based on molecular weight, MS fragmentation pattern and retention time. Peaks of some foldamers with β3-hIle or β3-hLeu in position R2 could not be resolved, these were integrated and averaged. In the processing method, each sample component was associated to a chromatographic peak based on previously identified mass (m/z) and retention time (ref (2) and Table S7-10). Using ICIS peak detection algorithm, the general detection and integration criteria were: smoothing points: 5, baseline window: 80, area noise factor: 5, peak noise factor: 10. Using these processing setups, all raw data files were reprocessed together and analyzed. Errors in peak identification during the automatic processing were corrected manually.
Calculation of the discussed parameters […]

CaM [3] = molecular target: T1, CaM; experiment: Competition pull-down with native ligand TRPV1-Ct15; assay type: binding, bovine; conditions: H14 library; competitor peptide 200 µM; read-out: Surface mapping KD (apparent), competition
Gal-1 [4] = molecular target: T2, Gal-1; experiment: Pull-down assay with immobilized protein and LSM libraries; assay type: binding; conditions: H14 library; 1:1 binding assumed; read-out: Surface mapping KD (apparent)
In short: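 His-tagged protein immobilized on Co-NTA resin (64 µM) in 20 mM HEPES pH 7.4, 150 mM NaCl, equilibrated 30 min at room temperature with foldamer LSM sublibraries at equimolar total concentration. Unbound fractions quantified by HPLC-MS versus protein-free resin control; apparent KD assumes 1:1 binding.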

S100A4 = molecular target: T3, S100A4 (Homo sapiens, UniProt P26447); experiment: as above; assay type: binding; conditions: for Kd: H14 library, 1:1 binding assumed, read-out: Surface mapping KD (apparent)
T3 construct: made in house; host or cells: Escherichia coli BL21(DE3)
In short: (§1)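 Buffers were HEPES pH 7.4 with 150 mM NaCl, plus 1 mM TCEP and 1 mM CaCl2 (50 mM HEPES) for S100A4 and S100B, 1 mM TCEP for Gal-1, and no additive for RecQ-WH. Immobilized protein at 64 µM was equilibrated 30 min with the LSM sublibrary, and unbound probes were measured by LC-MS.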

S100B = molecular target: T4, S100B (Homo sapiens, UniProt P04271); experiment: as above; assay type: binding; conditions: for Kd: H14 library, 1:1 binding assumed, read-out: Surface mapping KD (apparent)
T4 construct: made in house; host or cells: Escherichia coli BL21(DE3)
T4 sequence (P04271 1-92): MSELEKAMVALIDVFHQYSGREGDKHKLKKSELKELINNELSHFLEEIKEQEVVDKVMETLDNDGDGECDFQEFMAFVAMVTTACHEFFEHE
In short: as §1

[5] = H14 probes selected for validation

T3 sequence (P26447 whole entry): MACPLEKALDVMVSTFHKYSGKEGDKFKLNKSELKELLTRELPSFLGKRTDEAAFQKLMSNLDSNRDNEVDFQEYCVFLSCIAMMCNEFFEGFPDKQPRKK
T2 sequence (P09382 whole entry): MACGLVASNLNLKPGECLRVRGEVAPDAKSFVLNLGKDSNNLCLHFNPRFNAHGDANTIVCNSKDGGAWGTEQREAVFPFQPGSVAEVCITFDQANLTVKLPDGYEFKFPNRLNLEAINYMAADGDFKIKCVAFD

SMILES | Kd (CaM [1]) [µM] | Kd (Gal-1 [2]) [µM] | Kd (CaM [3]) [µM] | Kd (Gal-1 [4]) [µM] | Kd (S100A4) [µM] | Binding (S100A4; H14 probes) | Affinity class of probe (high, medium, low) in pull-down (S100A4; [5]) | Binding (S100B; H14 probes) | Affinity class of probe (high, medium, low) in pull-down (S100B; [5]) | Kd (S100B) [µM]
NC(=O)CC[C@@H](CC(=O)N[C@H]1CCCC[C@@H]1C(=O)N[C@H]1CCCC[C@@H]1C(=O)N[C@@H](CCC(=O)O)CC(=O)N[C@H]1CCCC[C@@H]1C(N)=O)NC(=O)[C@H]1CCCC[C@@H]1N [H14 QE] | 221 | 380 | 246 | 295 |  |  |  |  |  | 
CSCC[C@@H](CC(=O)N[C@H]1CCCC[C@@H]1C(N)=O)NC(=O)[C@H]1CCCC[C@@H]1NC(=O)[C@H]1CCCC[C@@H]1NC(=O)C[C@H](CC(N)=O)NC(=O)[C@H]1CCCC[C@@H]1N [H14 NM] | 50 | 406 | 452 | 350 |  |  |  |  |  | 
NC(=O)CC[C@@H](CC(=O)N[C@H]1CCCC[C@@H]1C(=O)N[C@H]1CCCC[C@@H]1C(=O)N[C@@H](CO)CC(=O)N[C@H]1CCCC[C@@H]1C(N)=O)NC(=O)[C@H]1CCCC[C@@H]1N [H14 QS] | 187 | 500 | 336 | 350 |  |  |  |  |  | 
NC(=O)CC[C@@H](CC(=O)N[C@H]1CCCC[C@@H]1C(N)=O)NC(=O)[C@H]1CCCC[C@@H]1NC(=O)[C@H]1CCCC[C@@H]1NC(=O)C[C@H](CCC(N)=O)NC(=O)[C@H]1CCCC[C@@H]1N [H14 QQ] | 186 | 467 | 295 | 273 |  |  |  |  |  | 
CC(C)[C@@H](CC(=O)N[C@H]1CCCC[C@@H]1C(N)=O)NC(=O)[C@H]1CCCC[C@@H]1NC(=O)[C@H]1CCCC[C@@H]1NC(=O)C[C@H](CCC(=O)O)NC(=O)[C@H]1CCCC[C@@H]1N [H14 EV] |  | 300 | 492 |  |  |  |  |  |  | 
CC(C)[C@@H](CC(=O)N[C@H]1CCCC[C@@H]1C(N)=O)NC(=O)[C@H]1CCCC[C@@H]1NC(=O)[C@H]1CCCC[C@@H]1NC(=O)C[C@@H](NC(=O)[C@H]1CCCC[C@@H]1N)[C@@H](C)O [H14 TV] | 113 | 424 | 376 | 399 |  |  |  |  |  | 
CSCC[C@@H](CC(=O)N[C@H]1CCCC[C@@H]1C(N)=O)NC(=O)[C@H]1CCCC[C@@H]1NC(=O)[C@H]1CCCC[C@@H]1NC(=O)C[C@@H](NC(=O)[C@H]1CCCC[C@@H]1N)[C@@H](C)O [H14 TM] | 46 |  | 113 |  | 13 | binds | high | does not | low | 
C[C@@H](CC(=O)N[C@H]1CCCC[C@@H]1C(N)=O)NC(=O)[C@H]1CCCC[C@@H]1NC(=O)[C@H]1CCCC[C@@H]1NC(=O)C[C@H](CO)NC(=O)[C@H]1CCCC[C@@H]1N [H14 SA] | 384 | 432 | 362 | 389 |  |  |  |  |  | 
NC(=O)C[C@@H](CC(=O)N[C@H]1CCCC[C@@H]1C(=O)N[C@H]1CCCC[C@@H]1C(=O)N[C@@H](CC(=O)O)CC(=O)N[C@H]1CCCC[C@@H]1C(N)=O)NC(=O)[C@H]1CCCC[C@@H]1N [H14 ND] | 211 | 294 | 471 | 229 |  |  |  |  |  | 
NC(=O)C[C@@H](CC(=O)N[C@H]1CCCC[C@@H]1C(N)=O)NC(=O)[C@H]1CCCC[C@@H]1NC(=O)[C@H]1CCCC[C@@H]1NC(=O)C[C@H](CO)NC(=O)[C@H]1CCCC[C@@H]1N [H14 SN] | 184 | 427 | 279 | 310 |  |  |  |  |  | 
CC(C)[C@@H](CC(=O)N[C@H]1CCCC[C@@H]1C(N)=O)NC(=O)[C@H]1CCCC[C@@H]1NC(=O)[C@H]1CCCC[C@@H]1NC(=O)C[C@H](CCC(N)=O)NC(=O)[C@H]1CCCC[C@@H]1N [H14 QV] | 94 | 372 | 229 | 349 |  |  |  |  |  | 
C[C@@H](O)[C@@H](CC(=O)N[C@H]1CCCC[C@@H]1C(N)=O)NC(=O)[C@H]1CCCC[C@@H]1NC(=O)[C@H]1CCCC[C@@H]1NC(=O)C[C@H](CC(N)=O)NC(=O)[C@H]1CCCC[C@@H]1N [H14 NT] | 187 | 500 | 336 | 350 |  |  |  |  |  | 
C[C@@H](O)[C@@H](CC(=O)N[C@H]1CCCC[C@@H]1C(=O)N[C@H]1CCCC[C@@H]1C(=O)N[C@@H](CO)CC(=O)N[C@H]1CCCC[C@@H]1C(N)=O)NC(=O)[C@H]1CCCC[C@@H]1N [H14 TS] | 71 | 390 | 487 | 408 |  |  |  |  |  | 
NC(=O)[C@H]1CCCC[C@@H]1NC(=O)C[C@H](CCC(=O)O)NC(=O)[C@H]1CCCC[C@@H]1NC(=O)[C@H]1CCCC[C@@H]1NC(=O)C[C@H](CO)NC(=O)[C@H]1CCCC[C@@H]1N [H14 SE] | 236 | 415 | 232 | 326 |  |  |  |  |  | 
NCCCC[C@@H](CC(=O)N[C@H]1CCCC[C@@H]1C(=O)N[C@H]1CCCC[C@@H]1C(=O)N[C@@H](CC(=O)O)CC(=O)N[C@H]1CCCC[C@@H]1C(N)=O)NC(=O)[C@H]1CCCC[C@@H]1N [H14 KD] |  | 290 | 365 |  |  |  |  |  |  | 
NCCCC[C@@H](CC(=O)N[C@H]1CCCC[C@@H]1C(=O)N[C@H]1CCCC[C@@H]1C(=O)N[C@H](CC(=O)N[C@H]1CCCC[C@@H]1C(N)=O)Cc1c[nH]c2ccccc12)NC(=O)[C@H]1CCCC[C@@H]1N [H14 KW] | 3 |  | 398 |  | 184 |  |  |  |  | 28
NC(=O)C[C@@H](CC(=O)N[C@H]1CCCC[C@@H]1C(=O)N[C@H]1CCCC[C@@H]1C(=O)N[C@@H](CO)CC(=O)N[C@H]1CCCC[C@@H]1C(N)=O)NC(=O)[C@H]1CCCC[C@@H]1N [H14 NS] | 184 | 427 | 279 | 310 |  |  |  |  |  | 
C[C@@H](O)[C@@H](CC(=O)N[C@H]1CCCC[C@@H]1C(=O)N[C@H]1CCCC[C@@H]1C(=O)N[C@@H](CCC(=O)O)CC(=O)N[C@H]1CCCC[C@@H]1C(N)=O)NC(=O)[C@H]1CCCC[C@@H]1N [H14 TE] | 285 | 366 | 281 | 244 |  |  |  |  |  | 
NCCCC[C@@H](CC(=O)N[C@H]1CCCC[C@@H]1C(=O)N[C@H]1CCCC[C@@H]1C(=O)N[C@H](CC(=O)N[C@H]1CCCC[C@@H]1C(N)=O)Cc1ccccc1)NC(=O)[C@H]1CCCC[C@@H]1N [H14 KF] | 8 |  | 339 |  | 102 |  |  |  |  | 26
